Measurements taken from patent US12195466B2, “Polyproline mimetics of proline-derived module-15” (Forschungsverbund Berlin e.V., priority 2018, dated 2025).

Assays:
EnaH-EVH1 domain [1] = target: T1, EnaH-EVH1 domain (Homo sapiens (Human), UniProt Q8N8S7); assay: Binding affinity to the EnaH-EVH1 domain by fluorescence titration (FT); conditions: for Kd / FT ΔG^0 (free energy): EnaH-EVH1 domain
Protocol: (§1) The binding data of the ligands to the domain was determined by means of isothermal titration calorimetry (ITC) or fluorescence titration (FT) and presented in the form of the dissociation constant (Kd) or the free energy (AGO). A stronger binding of the ligand to the domain is expressed by a smaller Kd value or a correspondingly more negative AGO value. The relationship between the two parameters is shown in equation (a): […]

Ena/VASP-EVH1 domain = conditions: cited from earlier work
Cell permeability = type: in vitro ADME; conditions: comparison among derivatives 44, 242 and 113
VASP = VASP (Homo sapiens (Human), UniProt P50552); conditions: cited from earlier work
[2] = esterification of the free acid 43; cited from earlier work
[3] = test system: highly metastatic colorectal and breast cancer cells; conditions: cited from earlier work
Metabolic stability = type: in vitro ADME; conditions: comparison among derivatives 44, 242 and 113
EVL-EVH1 = EVL-EVH1 (Homo sapiens (Human), UniProt Q9UI08); conditions: cited from earlier work
VASP-EVH1 = VASP-EVH1 (Homo sapiens (Human), UniProt P50552); conditions: cited from earlier work
Ena-EVH1 = Ena-EVH1 (Homo sapiens (Human), UniProt Q8N8S7); conditions: cited from earlier work
EnaH-EVH1 domain [4] = target: T1, EnaH-EVH1 domain; assay: Binding affinity to the EnaH-EVH1 domain by isothermal titration calorimetry (ITC); conditions: standard errors in brackets
Protocol: as §1

[5] = fluorescence titration, Table 3, read-out: KD

T1 sequence (Q8N8S7 1-111): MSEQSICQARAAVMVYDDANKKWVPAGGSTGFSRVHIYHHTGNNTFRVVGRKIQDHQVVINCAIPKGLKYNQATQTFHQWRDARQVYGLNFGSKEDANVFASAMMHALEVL
VASP, sequence (P50552 whole entry, species assumed): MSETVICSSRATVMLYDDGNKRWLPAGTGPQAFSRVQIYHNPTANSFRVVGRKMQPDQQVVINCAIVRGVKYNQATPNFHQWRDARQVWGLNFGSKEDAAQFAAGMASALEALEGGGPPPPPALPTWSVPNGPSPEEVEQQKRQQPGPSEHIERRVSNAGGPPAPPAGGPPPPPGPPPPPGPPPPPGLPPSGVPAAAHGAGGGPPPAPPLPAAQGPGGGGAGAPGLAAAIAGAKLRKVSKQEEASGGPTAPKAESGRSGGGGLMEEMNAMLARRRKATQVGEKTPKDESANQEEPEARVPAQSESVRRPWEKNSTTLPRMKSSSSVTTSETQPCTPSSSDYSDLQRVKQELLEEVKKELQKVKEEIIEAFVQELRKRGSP
VASP-EVH1, sequence (P50552 2-113): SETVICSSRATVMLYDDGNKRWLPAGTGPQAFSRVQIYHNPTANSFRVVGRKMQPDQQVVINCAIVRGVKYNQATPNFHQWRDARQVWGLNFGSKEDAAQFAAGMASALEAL
Ena-EVH1, sequence (Q8N8S7 1-111): as the sequence (Q8N8S7 1-111) above
EVL-EVH1, sequence (Q9UI08 1-112): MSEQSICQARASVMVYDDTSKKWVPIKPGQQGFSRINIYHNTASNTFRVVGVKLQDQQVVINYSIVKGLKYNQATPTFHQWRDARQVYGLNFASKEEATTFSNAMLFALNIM

Work on `COC(=O)CN1C(=O)[C@@H]2[C@@H](C=C[C@H]1CC(C)C)CCN2C(=O)[C@@H]1CC[C@@H]2C=C[C@H]3CCN(C(=O)[C@H](Cc4ccccc4Cl)NC(C)=O)[C@@H]3C(=O)N21` [Ac-[2Cl-Phe]-[ProM-1]-[ProM-17]-OMe] yielded a Kd (EnaH-EVH1 domain [1]; [5]) of 2200 nM.

`CCC[C@@H]1C=C[C@H]2CCN(C(=O)[C@@H]3CC[C@H]4C=C[C@]5(CCCN5C(=O)[C@H](Cc5ccccc5Cl)NC(C)=O)C(=O)N43)[C@@H]2C(=O)N1CC(=O)OC` [Ac-[2Cl-Phe]-[ProM-2]-[ProM-21]-OMe] gave a Kd (EnaH-EVH1 domain [1]; [5]) of 260 nM.

In the case of Ac-SFEFPPPPTEDEL-NH2 [Ligand 40], the “binding to the Ena/VASP-EVH1 domain (range in words)” value (Ena/VASP-EVH1 domain) is given as “micromolar range”.

For `CCOC(=O)[C@@H]1CC[C@@H]2C=C[C@H]3CCN(C(=O)[C@@H]4CC[C@H]5C=C[C@]6(CCCN6C(=O)[C@H](Cc6ccccc6Cl)NC(C)=O)C(=O)N54)[C@@H]3C(=O)N21` [Ligand 44, Ac-[L-2Cl—F]-[ProM-2]-[ProM-1]-OEt, reference compound], the cell permeabilities (Cell permeability) is given as “almost identical”, the “delocalization of VASP from focal adhesions and leading edge” value (VASP) is given as “delocalizes the protein VASP from focal adhesions” and the cell permeability [2] is given as “cell-permeable”. For the same compound, the “FT ΔG^0 (free energy)” value (EnaH-EVH1 domain [1]; standard errors in brackets) was −30.8 (0.2) kJ/mol, the “motility of cancer cells” value [3] was “drastically reduces the motility” and the metabolic stabilities (Metabolic stability) was “almost identical”.

For `CC[C@@H]1C=C[C@H]2CCN(C(=O)[C@@H]3CC[C@H]4C=C[C@]5(CCCN5C(=O)[C@H](Cc5ccccc5Cl)NC(C)=O)C(=O)N43)[C@@H]2C(=O)N1CC(=O)OC` [Ligand 247, Ac-[L-2Cl—F]-[ProM-2]-[R,S,R-Gly-ProM-15]-OMe], the Kd (EnaH-EVH1 domain [1]; [5]) was 470 nM, the “FT ΔG^0 (free energy)” value (EnaH-EVH1 domain [1]; standard errors in brackets) was −36.1 (0.1) kJ/mol and the Kd (EnaH-EVH1 domain [1]; standard errors in brackets, read-out: FT Kd) was 470 nM. The “gain in affinity by a factor” value (EnaH-EVH1 domain [1]; compared with the ProM-1-based predecessor ligands 44 and 242) was 9-10.

Work on `CC[C@@H]1C=C[C@H]2CCN(C(=O)[C@@H]3CC[C@@H]4C=C[C@H]5CCN(C(=O)[C@H](Cc6ccccc6Cl)NC(C)=O)[C@@H]5C(=O)N43)[C@@H]2C(=O)N1CC(=O)OC` [Ac-[2Cl-Phe]-[ProM-1]-[ProM-15]-OMe] yielded a Kd (EnaH-EVH1 domain [1]; [5]) of 900 nM.

In the case of `COC(=O)CN1C(=O)[C@@H]2[C@@H](C=C[C@H]1CC(C)C)CCN2C(=O)[C@@H]1CC[C@H]2C=C[C@]3(CCCN3C(=O)[C@H](Cc3ccccc3Cl)NC(C)=O)C(=O)N21` [Ac-[2Cl-Phe]-[ProM-2]-[ProM-17]-OMe], the Kd (EnaH-EVH1 domain [1]; [5]) is reported as 540 nM.

In the case of “Ac-[L-2CI-F]-[ProM-2]-[ProM-1]-OH [Ligand 43]”, the “increased binding affinity compared to the natural peptide 42” value (from here on “increased binding affinity”) (EVL-EVH1) is listed as 180 fold, the “increased binding affinity” value (VASP-EVH1) is listed as 280 fold and the “increased binding affinity” value (Ena-EVH1) is listed as 180 fold.

For `CC(=O)N[C@@H](Cc1ccccc1Cl)C(=O)N1CCC[C@]12C=C[C@@H]1CC[C@@H](C(=O)N3CC[C@@H]4C=C[C@H]5CC[C@@H](C(N)=O)N5C(=O)[C@H]43)N1C2=O` [Ligand 113, Ac-[L-2Cl—F]-[ProM-2]-[ProM-1]-NH2], the cell permeabilities (Cell permeability) was “almost identical”, the Kd (EnaH-EVH1 domain [4]) was 7000 nM and the metabolic stabilities (Metabolic stability) was “almost identical”.

For `COC(=O)[C@@H]1CC[C@@H]2C=C[C@H]3CCN(C(=O)[C@@H]4CC[C@H]5C=C[C@]6(CCCN6C(=O)[C@H](Cc6ccccc6Cl)NC(C)=O)C(=O)N54)[C@@H]3C(=O)N21` [Ligand 242, Ac-[L-2Cl—F]-[ProM-2]-[ProM-1]-OMe], the cell permeabilities (Cell permeability) was “almost identical”, the “FT ΔG^0 (free energy)” value (EnaH-EVH1 domain [1]; standard errors in brackets) was −30.6 (0.4) kJ/mol and the metabolic stabilities (Metabolic stability) was “almost identical”.

In the case of `CCOC(=O)[C@@H]1C[C@@H](C)[C@@H]2C=C[C@H]3CCN(C(=O)[C@@H]4CC[C@H]5C=C[C@]6(CCCN6C(=O)[C@H](Cc6ccccc6Cl)NC(C)=O)C(=O)N54)[C@@H]3C(=O)N12` [Ligand 251, Ac-[L-2Cl—F]-[ProM-2]-[ProM-9]-OEt, reference compound], the “FT ΔG^0 (free energy)” value (EnaH-EVH1 domain [1]; standard errors in brackets) is reported as −36.6 (0.3) kJ/mol.

Compound `CCC[C@@H]1C=C[C@H]2CCN(C(=O)[C@@H]3CC[C@@H]4C=C[C@H]5CCN(C(=O)[C@H](Cc6ccccc6Cl)NC(C)=O)[C@@H]5C(=O)N43)[C@@H]2C(=O)N1CC(=O)OC` [Ac-[2Cl-Phe]-[ProM-1]-[ProM-21]-OMe] has a Kd (EnaH-EVH1 domain [1]; [5]) of 2100 nM.
